The conditions of series [1]: cited from earlier work; for pKa2: α-ammonium ion; for pKa1: α-carboxyl group; for pKa3: side chain group.
Series [2] can be described thus: Osmolality of defibrotide formulations with various buffers and excipients. It counts as physicochemical. Here is the method:
(§1) It is important for pharmaceutical preparations for oral or parenteral administration to be of low-viscosity and/or isotonic. In order to identify buffers or excipients that may lower the viscosity and/or osmolality of defibrotide formulations, a wide-panel screening of various buffers and excipients (including GRAS excipients) was performed using a 200 mg/mL defibrotide formulation.

The nature of series [3]: Viscosity of defibrotide formulations with various buffers and excipients. It is filed as physicochemical. Here is the method: as §1

Consider 16 molecules from patent US20220023533A1, “SUBCUTANEOUS DELIVERY OF HIGH CONCENTRATION FORMULATIONS” (JAZZ PHRMACETICALS IRELAND LIMITED, priority 2018, published 2022).

Consider `C[C@H](N)C(=O)O` [Alanine], for which, in series [1], the pI is 6.00, the pKa2 is on record as 9.69 and the pKa1 is recorded as 2.34.
Turning to `N=C(N)NCCC[C@H](N)C(=O)O` [Arginine], in series [1], the pI is 10.76, the pKa3 is 12.48, the pKa2 is 9.04 and the pKa1 is given as 2.17.
As for `NC(=O)C[C@H](N)C(=O)O` [Asparagine], in series [1], the pI is 5.41, the pKa2 is 8.80 and the pKa1 is reported as 2.02.
Regarding `N[C@@H](CS)C(=O)O` [Cysteine], in series [1], the pI was 5.07, the pKa2 is given as 8.18 and the pKa1 is given as 1.96.
Take `O=S(=O)(O)CCN1CCN(CCO)CC1` [HEPES buffer]: the pKa value in series [1] (buffer or excipient) was 7.564.
As to `CC[C@H](C)[C@H](N)C(=O)O` [Isoleucine], in series [1], the pI is on record as 6.02, the pKa2 was 9.60 and the pKa1 is 2.36.
Regarding `NCCCC[C@H](N)C(=O)O` [Lysine], in series [1], the pI is reported as 9.74, the pKa3 is on record as 10.53, the pKa2 is given as 8.95 and the pKa1 was 2.18.
Consider `CSCC[C@H](N)C(=O)O` [Methionine], for which, in series [1], the pI is listed as 5.74, the pKa2 was 9.21 and the pKa1 is recorded as 2.28.
Regarding `N[C@@H](Cc1ccccc1)C(=O)O` [Phenylalanine], in series [1], the pI is 5.48, the pKa2 was 9.13 and the pKa1 was 1.83.
Regarding `O=C(O)[C@@H]1CCCN1` [Proline], in series [1], the pI is reported as 6.30, the pKa2 is given as 10.6 and the pKa1 was 1.99.
In the case of `N[C@@H](CO)C(=O)O` [Serine], in series [1], the pI is listed as 5.68 and the pKa2 is 9.15.
As to `C[C@@H](O)[C@H](N)C(=O)O` [Threonine], in series [1], the pI is 5.60, the pKa2 was 9.10 and the pKa1 is listed as 2.09.
Regarding `N[C@@H](Cc1c[nH]c2ccccc12)C(=O)O` [Tryptophan], in series [1], the pKa2 is recorded as 9.39 and the pKa1 is recorded as 2.83.
For `N[C@@H](Cc1ccc(O)cc1)C(=O)O` [Tyrosine], the pI in series [1] was 5.66.
For `CC(C)[C@H](N)C(=O)O` [Valine], in series [1], the pI is on record as 5.96, the pKa2 is given as 9.62 and the pKa1 was 2.32.
Turning to Defibrotide, in series [2], the “Effect of increasing the defibrotide concentration in the formulation on osmolality” value was “increase”. The “Effect of increasing the defibrotide concentration in the formulation on viscosity” value in series [3] is reported as “increase”.
